Laboratory results from PubChem BioAssay AID1963874 (Molecular Pharmacology Branch, DTP, NCI, 2024).

System: 253994-281-T-J1-PDC KRAS-mutant spheroids with HUVEC/MSC, viability
Experiment: Anticancer human tumor 253994-281-T-J1-PDC patient-derived colorectal carcinoma cell line growth inhibition [KRAS2]
Details: for IC50: curve of first compound; for viability, T/C: stronger effect = lower value
Method in brief: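 Combination screen of spheroid viability in tumor-cell co-cultures with endothelial (HUVEC) and mesenchymal stem cell stroma. Each agent was tested in half-log dilutions, topping at clinical Cmax or at 10 microM without a known Cmax.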

[1] = second compound 0.1 µM, first compound 0.01 µM
[2] = second compound 0.1 µM, first compound 0.0316 µM
[3] = second compound 0.1 µM, first compound 0.1 µM
[4] = second compound 0.1 µM, first compound 0.316 µM
[5] = second compound 0.1 µM, first compound 1 µM
[6] = second compound 0.1 µM, first compound 3.16 µM
[7] = second compound 0.316 µM, first compound 0.01 µM
[8] = second compound 0.316 µM, first compound 0.0316 µM
[9] = second compound 0.316 µM, first compound 0.1 µM
[10] = second compound 0.316 µM, first compound 0.316 µM
[11] = second compound 0.316 µM, first compound 1 µM
[12] = second compound 0.316 µM, first compound 3.16 µM
[13] = second compound 1 µM, first compound 0.01 µM
[14] = second compound 1 µM, first compound 0.0316 µM
[15] = second compound 1 µM, first compound 0.1 µM
[16] = second compound 1 µM, first compound 0.316 µM
[17] = second compound 1 µM, first compound 1 µM
[18] = second compound 1 µM, first compound 3.16 µM
[19] = second compound 3.16 µM, first compound 0.01 µM
[20] = second compound 3.16 µM, first compound 0.0316 µM
[21] = second compound 3.16 µM, first compound 0.1 µM
[22] = second compound 3.16 µM, first compound 0.316 µM
[23] = second compound 3.16 µM, first compound 1 µM
[24] = second compound 3.16 µM, first compound 3.16 µM
[25] = second compound 10 µM, first compound 0.01 µM
[26] = second compound 10 µM, first compound 0.0316 µM
[27] = second compound 10 µM, first compound 0.1 µM
[28] = second compound 10 µM, first compound 0.316 µM
[29] = second compound 10 µM, first compound 1 µM
[30] = second compound 10 µM, first compound 3.16 µM
[31] = second compound 0.1 µM, first compound 10 µM
[32] = second compound 0.316 µM, first compound 10 µM
[33] = second compound 1 µM, first compound 10 µM
[34] = second compound 3.16 µM, first compound 10 µM
[35] = second compound 10 µM, first compound 10 µM
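Note: spheroids exposed to agents for seven days before readout.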
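Throughout, for viability, T/C: percent of DMSO vehicle control viability.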

## CC1COCCN1c1cc(-c2ccnn2C)c2ccnc(-c3ccn[nH]3)c2n1 (stereo not given) + CC1OCC2(CCN(c3cnc(Sc4ccnc(N)c4Cl)c(N)n3)CC2)C1N
Second compound 0.1 µM
  IC50: 280 nM
Second compound 0.316 µM
  IC50: 141 nM
Second compound 1 µM
  IC50: 116 nM
Second compound 3.16 µM
  IC50: 49.7 nM
Second compound 10 µM
  IC50: < 10 nM
[1]
  viability, T/C: 87%
[2]
  viability, T/C: 81.8%
[3]
  viability, T/C: 62.9%
[4]
  viability, T/C: 44%
[5]
  viability, T/C: 47%
[6]
  viability, T/C: 53.1%
[7]
  viability, T/C: 87.5%
[8]
  viability, T/C: 83%
[9]
  viability, T/C: 55.4%
[10]
  viability, T/C: 33.3%
[11]
  viability, T/C: 36.4%
[12]
  viability, T/C: 43.6%
[13]
  viability, T/C: 75.2%
[14]
  viability, T/C: 70.4%
[15]
  viability, T/C: 52.8%
[16]
  viability, T/C: 30.9%
[17]
  viability, T/C: 27.6%
[18]
  viability, T/C: 38%
[19]
  viability, T/C: 59.5%
[20]
  viability, T/C: 58.9%
[21]
  viability, T/C: 35.8%
[22]
  viability, T/C: 24.1%
[23]
  viability, T/C: 24.3%
[24]
  viability, T/C: 28.2%
[25]
  viability, T/C: 43%
[26]
  viability, T/C: 53.4%
[27]
  viability, T/C: 25.1%
[28]
  viability, T/C: 16.7%
[29]
  viability, T/C: 18.9%
[30]
  viability, T/C: 23.6%

## CCN1CCN(Cc2ccc(Nc3ncc(F)c(-c4cc(F)c5nc(C)n(C(C)C)c5c4)n3)nc2)CC1 + CC1OCC2(CCN(c3cnc(Sc4ccnc(N)c4Cl)c(N)n3)CC2)C1N
Second compound 0.1 µM
  IC50: 715 nM
Second compound 0.316 µM
  IC50: 422 nM
Second compound 1 µM
  IC50: 186 nM
Second compound 3.16 µM
  IC50: 51 nM
Second compound 10 µM
  IC50: 12.2 nM
Second compound 0.1 µM, first compound 0.00316 µM
  viability, T/C: 93.1%
[1]
  viability, T/C: 102%
[2]
  viability, T/C: 87.6%
[3]
  viability, T/C: 79.9%
[4]
  viability, T/C: 64.4%
[5]
  viability, T/C: 44.2%
Second compound 0.316 µM, first compound 0.00316 µM
  viability, T/C: 96%
[7]
  viability, T/C: 90.6%
[8]
  viability, T/C: 83.7%
[9]
  viability, T/C: 62.4%
[10]
  viability, T/C: 62.4%
[11]
  viability, T/C: 33%
Second compound 1 µM, first compound 0.00316 µM
  viability, T/C: 77.8%
[13]
  viability, T/C: 76%
[14]
  viability, T/C: 72.9%
[15]
  viability, T/C: 57.7%
[16]
  viability, T/C: 43.3%
[17]
  viability, T/C: 32.2%
Second compound 3.16 µM, first compound 0.00316 µM
  viability, T/C: 68.2%
[19]
  viability, T/C: 76.6%
[20]
  viability, T/C: 47.1%
[21]
  viability, T/C: 41.9%
[22]
  viability, T/C: 39%
[23]
  viability, T/C: 22.8%
Second compound 10 µM, first compound 0.00316 µM
  viability, T/C: 57%
[25]
  viability, T/C: 55.9%
[26]
  viability, T/C: 39.3%
[27]
  viability, T/C: 33%
[28]
  viability, T/C: 33%
[29]
  viability, T/C: 15%

## CCNC(=O)CC1N=C(c2ccc(Cl)cc2)c2cc(OC)ccc2-n2c(C)nnc21 (stereo not given) + CC1OCC2(CCN(c3cnc(Sc4ccnc(N)c4Cl)c(N)n3)CC2)C1N
Second compound 0.1 µM
  IC50: > 10000 nM
Second compound 0.316 µM
  IC50: > 10000 nM
Second compound 1 µM
  IC50: 3860 nM
Second compound 3.16 µM
  IC50: 648 nM
Second compound 10 µM
  IC50: 63.7 nM
[2]
  viability, T/C: 90.4%
[3]
  viability, T/C: 100%
[4]
  viability, T/C: 86.5%
[5]
  viability, T/C: 82%
[6]
  viability, T/C: 74.2%
[31]
  viability, T/C: 67%
[8]
  viability, T/C: 85.2%
[9]
  viability, T/C: 81.3%
[10]
  viability, T/C: 75.5%
[11]
  viability, T/C: 65%
[12]
  viability, T/C: 74%
[32]
  viability, T/C: 65%
[14]
  viability, T/C: 80%
[15]
  viability, T/C: 79.9%
[16]
  viability, T/C: 79%
[17]
  viability, T/C: 64.1%
[18]
  viability, T/C: 54.6%
[33]
  viability, T/C: 35.1%
[20]
  viability, T/C: 61.5%
[21]
  viability, T/C: 78%
[22]
  viability, T/C: 61.5%
[23]
  viability, T/C: 40.9%
[24]
  viability, T/C: 34.9%
[34]
  viability, T/C: 23.1%
[26]
  viability, T/C: 52.8%
[27]
  viability, T/C: 47.6%
[28]
  viability, T/C: 43.5%
[29]
  viability, T/C: 36.4%
[30]
  viability, T/C: 26.6%
[35]
  viability, T/C: 16.5%

## Cn1nccc1Nc1nccc(-c2cc3c(s2)C(C)(C)N(CCN2CCOCC2)C3=O)n1 + CC1OCC2(CCN(c3cnc(Sc4ccnc(N)c4Cl)c(N)n3)CC2)C1N
Second compound 0.1 µM
  IC50: 1460 nM
Second compound 0.316 µM
  IC50: 745 nM
Second compound 1 µM
  IC50: 280 nM
Second compound 3.16 µM
  IC50: 110 nM
Second compound 10 µM
  IC50: < 31.6 nM
[2]
  viability, T/C: 81.1%
[3]
  viability, T/C: 82.9%
[4]
  viability, T/C: 74.9%
[5]
  viability, T/C: 59%
[6]
  viability, T/C: 32.3%
[31]
  viability, T/C: 18.9%
[8]
  viability, T/C: 77%
[9]
  viability, T/C: 79.2%
[10]
  viability, T/C: 63.1%
[11]
  viability, T/C: 45.6%
[12]
  viability, T/C: 26%
[32]
  viability, T/C: 17.9%
[14]
  viability, T/C: 68.3%
[15]
  viability, T/C: 64.6%
[16]
  viability, T/C: 48.3%
[17]
  viability, T/C: 22.5%
[18]
  viability, T/C: 13.2%
[33]
  viability, T/C: 15%
[20]
  viability, T/C: 60.8%
[21]
  viability, T/C: 50.2%
[22]
  viability, T/C: 34.8%
[23]
  viability, T/C: 15.3%
[24]
  viability, T/C: 10%
[34]
  viability, T/C: 8.2%
[26]
  viability, T/C: 39.8%
[27]
  viability, T/C: 28.4%
[28]
  viability, T/C: 15.4%
[29]
  viability, T/C: 8.1%
[30]
  viability, T/C: 4.83%
[35]
  viability, T/C: 6.14%
